Measurements as given in patent US20120034613A1, “Apparatus and Method for Testing Relationships Between Gene Expression and Physical Appearance of Skin” (NSE Products, Inc., priority 2010, published 2012).

Test system: EpidermFT™ Skin Model (EFT-400) full thickness skin cultures
Test: Affymetrix GeneChip HG U133 Plus 2.0 microarray global gene expression, agent-exposed vs untreated skin cultures
Assay type: cell-based, human
Settings: 0.5%, 24 hr

OCc1ccccc1O[C@@H]1O[C@H](CO)[C@@H](O)[C@H](O)[C@H]1O [Salicin, 2-(Hydroxymethyl)phenyl β-D-glucospyranoside]
Direction CYR61 (probe 210764_s_at): up
Fold change CYR61 (probe 210764_s_at): 2.692
Direction PLAUR (probe 210845_s_at): up
Fold change PLAUR (probe 210845_s_at): 2.249
Direction HGF (probe 210998_s_at): up
Fold change HGF (probe 210998_s_at): 4.35
Direction SERPINB4 (probe 211906_s_at): down
Fold change SERPINB4 (probe 211906_s_at): 5.613
Direction CAT (probe 211922_s_at): down
Fold change CAT (probe 211922_s_at): 2.095
Direction IGFBP5 (probe 211958_at): up
Fold change IGFBP5 (probe 211958_at): 2.712
Direction COL4A1 (probe 211981_at): up
Fold change COL4A1 (probe 211981_at): 2.121
Direction RHOB (probe 212099_at): up
Fold change RHOB (probe 212099_at): 3.764
Direction SGPL1 (probe 212321_at): down
Fold change SGPL1 (probe 212321_at): 2.406
Direction SULF1 (probe 212353_at): up
Fold change SULF1 (probe 212353_at): 4.424
Direction LCN2 (probe 212531_at): down
Fold change LCN2 (probe 212531_at): 12.01
Direction PRKCA (probe 213093_at): up
Fold change PRKCA (probe 213093_at): 2.125
Direction STARD13 (probe 213103_at): up
Fold change STARD13 (probe 213103_at): 2.844
Direction HSPA6 (probe 213418_at): up
Fold change HSPA6 (probe 213418_at): 14.24
Direction MFAP5 (probe 213764_s_at): down
Fold change MFAP5 (probe 213764_s_at): 2.112
Direction STARD5 (probe 213820_s_at): down
Fold change STARD5 (probe 213820_s_at): 3.436
Direction SST (probe 213921_at): up
Fold change SST (probe 213921_at): 4.356
Direction PTGER3 (probe 213933_at): down
Fold change PTGER3 (probe 213933_at): 13.58
Direction COL4A6 (probe 213992_at): down
Fold change COL4A6 (probe 213992_at): 4.8
Direction S100A8 (probe 214370_at): up
Fold change S100A8 (probe 214370_at): 2.98
Direction ELL2 (probe 214446_at): up
Fold change ELL2 (probe 214446_at): 2.557
Direction FN1 (probe 214702_at): up
Fold change FN1 (probe 214702_at): 2.71
Direction ADAMTS3 (probe 214913_at): up
Fold change ADAMTS3 (probe 214913_at): 2.145
Direction SOD2 (probe 215078_at): up
Fold change SOD2 (probe 215078_at): 5.712
Direction KLK10 (probe 215808_at): down
Fold change KLK10 (probe 215808_at): 4.673
Direction FNDC3A (probe 215910_s_at): up
Fold change FNDC3A (probe 215910_s_at): 3.663
Direction TNC (probe 216005_at): up
Fold change TNC (probe 216005_at): 2.719
Direction MAP3K4 (probe 216199_s_at): up
Fold change MAP3K4 (probe 216199_s_at): 2.654
Direction NR4A2 (probe 216248_s_at): up
Fold change NR4A2 (probe 216248_s_at): 7.592
Direction LTB4R (probe 216388_s_at): down
Fold change LTB4R (probe 216388_s_at): 2.456
Direction CCL2 (probe 216598_s_at): up
Fold change CCL2 (probe 216598_s_at): 5.407
Direction KLK1 (probe 216699_s_at): down
Fold change KLK1 (probe 216699_s_at): 2.169
Direction NR4A3 (probe 216979_at): up
Fold change NR4A3 (probe 216979_at): 7.204
Direction NAMPT (probe 217738_at): up
Fold change NAMPT (probe 217738_at): 2.668
Direction TSPAN13 (probe 217979_at): down
Fold change TSPAN13 (probe 217979_at): 2.401
Direction PHLDA1 (probe 217997_at): up
Fold change PHLDA1 (probe 217997_at): 3.409
Direction ZC3H12A (probe 218810_at): up
Fold change ZC3H12A (probe 218810_at): 2.117
Direction LASS4 (probe 218922_s_at): down
Fold change LASS4 (probe 218922_s_at): 3.028
Direction KRT23 (probe 218963_s_at): down
Fold change KRT23 (probe 218963_s_at): 10.94
Direction IL20RA (probe 219115_s_at): down
Fold change IL20RA (probe 219115_s_at): 12.07
Direction HSPBAP1 (probe 219284_at): up
Fold change HSPBAP1 (probe 219284_at): 2.08
Direction MREG (probe 219648_at): down
Fold change MREG (probe 219648_at): 2.887
Direction SMPD3 (probe 219695_at): down
Fold change SMPD3 (probe 219695_at): 13.66
Direction IL23A (probe 220054_at): up
Fold change IL23A (probe 220054_at): 2.967
Direction IL22RA1 (probe 220056_at): down
Fold change IL22RA1 (probe 220056_at): 2.023
Direction HYAL4 (probe 220249_at): down
Fold change HYAL4 (probe 220249_at): 3.117
Direction CALML5 (probe 220414_at): down
Fold change CALML5 (probe 220414_at): 8.749
Direction PSORS1C2 (probe 220635_at): down
Fold change PSORS1C2 (probe 220635_at): 19.08
Direction IL19 (probe 220745_at): up
Fold change IL19 (probe 220745_at): 2.278
Direction IL1F7 (probe 221470_s_at): down
Fold change IL1F7 (probe 221470_s_at): 100.5
Direction GDF15 (probe 221577_x_at): up
Fold change GDF15 (probe 221577_x_at): 5.573
Direction HSPB8 (probe 221667_s_at): down
Fold change HSPB8 (probe 221667_s_at): 4.659
Direction HMGCS1 (probe 221750_at): down
Fold change HMGCS1 (probe 221750_at): 2.406
Direction DNAJC10 (probe 221782_at): up
Fold change DNAJC10 (probe 221782_at): 2.553
Direction KLF4 (probe 221841_s_at): down
Fold change KLF4 (probe 221841_s_at): 2.468
Direction CLDN1 (probe 222549_at): down
Fold change CLDN1 (probe 222549_at): 7.758
Direction HPSE (probe 222881_at): down
Fold change HPSE (probe 222881_at): 4.194
